Laboratory results taken from the supplement of paper PMC13380429.

Tests used:
Settings in all cases: 72 h
HepG2 [1] = experiment: cell viability relative to DMSO; higher = less toxic
Vero E6 [2] = experiment: as above
U2OS [3] = experiment: as above
Calu-3 [4] = experiment: as above
Caco-2 [5] = experiment: as above
HepG2 [6] = experiment: relative viability EC50 (midpoint between 100% and the lowest measured viability); higher = less toxic
Vero E6 [7] = experiment: as above
U2OS [8] = experiment: as above
Calu-3 [9] = experiment: as above
Caco-2 [10] = experiment: as above
HepG2 [11] = experiment: drug sensitivity score (DSS) for viability; higher = more toxic; extreme values may be limits of the assay
Vero E6 [12] = experiment: as above
U2OS [13] = experiment: as above
Calu-3 [14] = experiment: as above
Caco-2 [15] = experiment: as above

| SMILES | cell viability (HepG2 [1]; 1 nM) | cell viability (HepG2 [1]; 10 nM) | cell viability (HepG2 [1]; 100 nM) | cell viability (HepG2 [1]; 1000 nM) | cell viability (HepG2 [1]; 10000 nM) | cell viability (Vero E6 [2]; 1 nM) | cell viability (Vero E6 [2]; 10 nM) | cell viability (Vero E6 [2]; 100 nM) | cell viability (Vero E6 [2]; 1000 nM) | cell viability (Vero E6 [2]; 10000 nM) | cell viability (U2OS [3]; 1 nM) | cell viability (U2OS [3]; 10 nM) | cell viability (U2OS [3]; 100 nM) | cell viability (U2OS [3]; 1000 nM) | cell viability (U2OS [3]; 10000 nM) | cell viability (Calu-3 [4]; 1 nM) | cell viability (Calu-3 [4]; 10 nM) | cell viability (Calu-3 [4]; 100 nM) | cell viability (Calu-3 [4]; 1000 nM) | cell viability (Calu-3 [4]; 10000 nM) | cell viability (Caco-2 [5]; 1 nM) | cell viability (Caco-2 [5]; 10 nM) | cell viability (Caco-2 [5]; 100 nM) | cell viability (Caco-2 [5]; 1000 nM) | cell viability (Caco-2 [5]; 10000 nM) | relative viability EC50 (HepG2 [6]) | relative viability EC50 (Vero E6 [7]) | relative viability EC50 (U2OS [8]) | relative viability EC50 (Calu-3 [9]) | relative viability EC50 (Caco-2 [10]) | drug sensitivity score (HepG2 [11]) | drug sensitivity score (Vero E6 [12]) | drug sensitivity score (U2OS [13]) | drug sensitivity score (Calu-3 [14]) | drug sensitivity score (Caco-2 [15]) |
| --- | --- | --- | --- | --- | --- | --- | --- | --- | --- | --- | --- | --- | --- | --- | --- | --- | --- | --- | --- | --- | --- | --- | --- | --- | --- | --- | --- | --- | --- | --- | --- | --- | --- | --- | --- |
| C=C1/C(=C\C=C2/CCC[C@]3(C)[C@@H]([C@H](C)CCCC(O)(C(F)(F)F)C(F)(F)F)CC[C@@H]23)C[C@@H](O)C[C@@H]1O [falecalcitriol] | 98.1% | 97% | 94.1% | 102% | 92.9% | 92.4% | 96.2% | 85.8% | 94.9% | 104% | 100% | 94.9% | 98.5% | 92.7% | 93.1% | 122% | 99.3% | 95.7% | 99.7% | 98.2% | 96.2% | 96.1% | 90.6% | 95.6% | 92.6% | > 10 µM | > 10 µM | > 10 µM | > 10 µM | > 10 µM | 0 | 0 | 0 | 0 | 0 |
| CSc1ccc(OCc2ncc([N+](=O)[O-])n2C)cc1 [fexinidazole] | 92.7% | 85.9% | 104% | 105% | 88.4% | 103% | 101% | 99.7% | 101% | 97% | 98.3% | 103% | 99.7% | 97.1% | 98.5% | 100% | 98.5% | 78.6% | 101% | 97.9% | 106% | 104% | 105% | 96.7% | 96.9% | > 10 µM | > 10 µM | > 10 µM | > 10 µM | > 10 µM | 0 | 0 | 0 | 0 | 0 |
| COc1ccc(Cl)cc1[C@]1(F)C(=O)Nc2cc(C(F)(F)F)ccc21 [flindokalner] | 103% | 96.3% | 103% | 100% | 95.2% | 97.7% | 96.1% | 98.8% | 95.6% | 101% | 96.9% | 102% | 97.3% | 97.8% | 95.2% | 103% | 91.3% | 96.3% | 96.9% | 93.9% | 95.2% | 102% | 97.6% | 101% | 88.7% | > 10 µM | > 10 µM | > 10 µM | > 10 µM | > 10 µM | 0 | 0 | 0 | 0 | 0 |
| C#C[C@]1(O)CC[C@H]2[C@@H]3CCC4=CC(=O)CCC4=C3C=C[C@@]21CC [gestrinone] | 96.7% | 103% | 101% | 103% | 90.6% | 96.6% | 97.2% | 101% | 89.3% | 101% | 94.7% | 95.8% | 91.6% | 99.9% | 93.9% | 106% | 93.3% | 99.9% | 97.8% | 94.1% | 107% | 116% | 86.1% | 102% | 101% | > 10 µM | > 10 µM | > 10 µM | > 10 µM | > 10 µM | 0 | 0 | 0 | 0 | 0 |
| N[C@H](C(=O)O)c1cc(O)no1 [ibotenic-acid] | 91.3% | 104% | 95.1% | 93.3% | 93.9% | 102% | 101% | 99.1% | 99.4% | 100% | 97.8% | 97.5% | 96.6% | 102% | 92.4% | 93% | 93.7% | 105% | 93.6% | 94% | 92.9% | 94.2% | 93.6% | 97.2% | 96.5% | > 10 µM | > 10 µM | > 10 µM | > 10 µM | > 10 µM | 0 | 0 | 0 | 0 | 0 |
| CC[C@H](Nc1ncnc2[nH]cnc12)c1nc2cccc(F)c2c(=O)n1-c1ccccc1 [idelalisib] | 104% | 94% | 108% | 97.3% | 88.5% | 99% | 95% | 96% | 87.5% | 89.5% | 91.2% | 101% | 94.1% | 95.6% | 93.9% | 106% | 104% | 85.8% | 103% | 89.5% | 95.4% | 98.1% | 96.6% | 101% | 83.7% | > 10 µM | > 10 µM | > 10 µM | > 10 µM | > 10 µM | 0.1 | 0.2 | 0 | 0 | 0.3 |
| CC1Cc2ccccc2N1NC(=O)c1ccc(Cl)c(S(N)(=O)=O)c1 (stereo not given) [indapamide] | 95.5% | 95.7% | 94.2% | 99.5% | 97.1% | 100% | 100% | 103% | 97.4% | 92.9% | 101% | 96.9% | 97.9% | 96.7% | 98.3% | 105% | 110% | 105% | 96.7% | 96% | 94.8% | 96% | 94.3% | 94.8% | 93.3% | > 10 µM | > 10 µM | > 10 µM | > 10 µM | > 10 µM | 0 | 0 | 0 | 0 | 0 |
| O=[N+]([O-])O[C@H]1CO[C@H]2[C@@H]1OC[C@H]2O[N+](=O)[O-] [isosorbide-dinitrate] | 90.6% | 117% | 102% | 113% | 101% | 94.2% | 102% | 92.5% | 97.1% | 108% | 100% | 96.1% | 100% | 99.8% | 99% | 99.4% | 101% | 101% | 101% | 107% | 99.1% | 95% | 102% | 90.5% | 98.7% | > 10 µM | > 10 µM | > 10 µM | > 10 µM | > 10 µM | 0 | 0 | 0 | 0 | 0 |
| COc1ccc(C(=O)NCc2ccc(OCCN(C)C)cc2)cc1OC [itopride] | 97.4% | 96.2% | 87.2% | 90.3% | 107% | 99.9% | 102% | 99.8% | 101% | 96.7% | 102% | 101% | 99.1% | 103% | 95.1% | 102% | 103% | 97.1% | 103% | 91.2% | 99% | 96.5% | 108% | 100% | 89.5% | > 10 µM | > 10 µM | > 10 µM | > 10 µM | > 10 µM | 0 | 0 | 0 | 0 | 0 |
| O=C(C[S+]([O-])Cc1ccco1)NC/C=C\COc1cc(CN2CCCCC2)ccn1 (stereo not given) [lafutidine] | 98.3% | 95.4% | 97.9% | 105% | 104% | 101% | 100% | 100% | 93.5% | 96.1% | 99.3% | 100% | 96.9% | 102% | 94.8% | 91.4% | 106% | 95.6% | 93.2% | 92.3% | 91.5% | 91.3% | 97.6% | 97% | 90.6% | > 10 µM | > 10 µM | > 10 µM | > 10 µM | > 10 µM | 0 | 0 | 0 | 0 | 0 |
| C[C@@H]1CN([C@H]2CC[C@](C#N)(c3ccc(F)cc3)CC2)CC[C@]1(C(=O)O)c1ccccc1 [levocabastine] | 91.5% | 99.6% | 93.6% | 93.7% | 94.2% | 102% | 106% | 100% | 104% | 100% | 97.8% | 98% | 104% | 98% | 105% | 94.2% | 99.3% | 109% | 99.4% | 96.2% | 103% | 104% | 108% | 99.5% | 99.3% | > 10 µM | > 10 µM | > 10 µM | > 10 µM | > 10 µM | 0 | 0 | 0 | 0 | 0 |
| CCN(CC)C(=O)N[C@H]1C=C2c3cccc4[nH]cc(c34)C[C@H]2N(C)C1 [lisuride] | 87.7% | 90% | 101% | 97.4% | 96.3% | 97.7% | 106% | 93.5% | 102% | 106% | 99.9% | 100% | 100% | 93.4% | 96% | 96% | 88.6% | 104% | 85% | 105% | 102% | 81.3% | 101% | 115% | 100% | > 10 µM | > 10 µM | > 10 µM | > 10 µM | > 10 µM | 0 | 0 | 0 | 0 | 0 |
| CCOC(=O)c1c(C)n(C)c2ccc(O)cc12 [mecarbinate] | 107% | 104% | 105% | 97.8% | 107% | 99.7% | 98.4% | 100% | 92.9% | 109% | 97.1% | 102% | 94.6% | 100% | 107% | 101% | 101% | 98.6% | 90.6% | 106% | 95.1% | 98.9% | 96% | 103% | 105% | > 10 µM | > 10 µM | > 10 µM | > 10 µM | > 10 µM | 0 | 0 | 0 | 0 | 0 |
| CC(C)C(=O)OC[C@H]1O[C@@H](n2ccc(N)nc2=O)[C@](C)(F)[C@@H]1OC(=O)C(C)C [mericitabine] | 89.3% | 99.3% | 94.1% | 102% | 91.6% | 92.5% | 97.6% | 99.3% | 93.6% | 91.5% | 97.1% | 94% | 98.6% | 97% | 97.4% | 110% | 88.1% | 108% | 109% | 106% | 93.9% | 86.9% | 96.3% | 91.1% | 102% | > 10 µM | > 10 µM | > 10 µM | > 10 µM | > 10 µM | 0 | 0 | 0 | 0 | 0 |
